Laboratory results: patent US10561723B2, “Treatment and prevention of anal conditions” (priority 2015, dated 2020)
Entries after “also recorded” stand apart in the source; their conditions may differ.

How the values were obtained:
anal dysplasia [1] = assay: Anal pap smear cytology, case report Example 3; type: in vivo, human; conditions: Ex.3, imiquimod + HPV-9 vaccine
Source text: (§1) Case Report Summary: The patient is a HIV positive gay with chronic HIV infection who presents with recurrent high grade squamous intraepithelial lesion (HSIL) post multiple ablative treatments. The patient received treatment for their HIV disease with a combination of anti-retroviral medicatons (abacavir, etravirine, prezista and ritonavir which was later modified to dolutegravir, etravirine and prezista and ritonavir). Over the past two years the CD4 count has been in the range of 250-350 and there has been low level HIV viremia (40-400 copies range per ml of plasma) due to intermittent adherence. The patient has other co-morbid conditions including hepatitis C, hypertension, hyperlipidemia, osteoporosis, and high risk sexual activity.
(§2) May 29, 2015 Discussed immunotherapy for recurrent HSIL after failing ablative therapies described above. Patient received HPV-9 vaccine intramuscular in the deltoid. This is the start of the immunotherapy protocol. Patient starts the intra-anal application of 5% imiquimod cream three times per week.
(§3) Jan. 15, 2016 4th perianal HPV-9 vaccination given. Discontinue 5% intra-anal imiquimod cream and begin 5% 5-fluorouracil cream intra-anally three times a week for 20 weeks.

[2] = tested on: anal intraepithelial neoplasia (AIN); assay: HRA with biopsies, case report Example 3; type: in vivo, human; conditions: Ex.3; for anal dysplasia, overall outcome of immunotherapy protocol: 5% imiquimod cream with perianal HPV-9 immunizations followed by 4-5 months of 2-3 times weekly intra-anal 5% 5-fluorouracil cream
Source text: as §1, §2, §3

[3] = Side effects, case report Example 3; type: in vivo, human; conditions: Ex.3; for most notable side effects of the immunotherapy protocol: 5% imiquimod cream and 5% 5-fluorouracil cream intra-anally, resolved on brief cessation or reduced frequency
Source text: Aug. 7, 2015 HRA done and biopsies taken. […] Pt told to wait until irritation has abated before continuing the imiquimod cream treatments. First perianal HPV-9 vaccination given.
The above case report represents a case of recurrent anal HSIL status post multiple ablative procedures. The patient has HIV infection and thus is moderately immunosuppressed. In spite of the immunosuppression, the patient was able to clear not only HSIL (AIN 2 and AIN 3) but also was able to clear LSIL (AIN 1). The presence of a normal anal pap smear result on Jun. […] 20, 2016. […] It is presumed that the use of the 5-fluorouracil cream treated nests of dysplastic cells that if not treated would likely lead to recurrent LSIL or HSIL. Thus, the immunotherapy protocol may be useful for patients in a salvage situation who have failed multiple ablative procedures with recurrent HSIL in the setting of immunosuppression due to HIV infection. […] This might be due to the immunosuppression secondary to chronic HIV infection.

high risk (HR) HPV DNA = assay: Anal pap high risk HPV DNA screen, case report Example 1; type: in vivo, human
Description: (§4) Case Report Summary: A HIV negative patient with multifocal AIN 2 and AIN 3 in the anal transitional zone was enrolled. The patient was treated with intra-anal imiquimod followed by an intramuscular dose of HPV4 followed by four perianal HPV4 immunizations, each separated by 3-4 weeks. The patient was screened for high risk (HR) HPV DNA on a weekly basis and had multiple biopsies to identify possible dysplasia.
(§5) Detailed Data and Results: A HIV negative person presented for routine health care. […] Patient was referred for HRA. […] 5, 2014. Biopsies indicated the following: distal AIN 1 at three o'clock; AIN 1 at 4 o'clock; AIN 2 at 7 o'clock; AIN 2 at 10 o'clock; and AIN 2 at 12 o'clock. FIGS. 1B and 1C are posterior and anterior views, respectively, showing circumferential staining of the anal canal. Patient received the first immunization with qHPV vaccine IM in the deltoid on Nov. 13, 2014. On Dec. 1, 2014, the patient received the first perianal qHPV vaccine. They started to use 5% imiquimod on Dec. 1, 2014 with one packet applied intra-anally three times weekly.

anal dysplasia [4] = assay: Anal pap smear cytology, case report Example 1; type: in vivo, human
Description: as §4, §5

[5] = tested on: anal intraepithelial neoplasia (AIN); assay: High resolution anoscopy (HRA) with biopsies, case report Example 1; type: in vivo, human
Description: as §4, §5

[6] = Tolerability, case report Example 1; type: in vivo, human; conditions: Ex.1; intra-anal 5% imiquimod 3x/wk; resolved, restarted after several days to one week
Source text: On Dec. 29, 2014 the patient was again examined and had ASCUS anal pap smear. The anal pap was negative for high risk HPV types. […] The erythema and discomfort resolved and imiquimod was restarted after a period of several days to one week. On Jan. 27, 2015 the anal pap smear was normal and negative for high risk HPV DNA. They received the third perianal qHPV vaccine.

[7] = tested on: HPV other high risk types; assay: Anal HPV typing/assay, case report Example 3; type: in vivo, human
Source text: as §1, §2, §3

HPV DNA / AIN = conditions: cited from earlier work
hepatitis C, genotype 1 = assay: Hepatitis C treatment of the Example 3 patient; type: in vivo, human; conditions: Ex.3 patient; 12 weeks of treatment; 12 weeks post completion of therapy
[8] = then intra-anal 5% 5-fluorouracil cream from Jan. 15, 2016, Jun. 20, 2016
[9] = imiquimod + HPV-9 vaccine, then intra-anal 5% 5-fluorouracil cream from Jan. 15, 2016, Apr. 21, 2016
[10] = imiquimod + HPV-9 vaccine, then intra-anal 5% 5-fluorouracil cream from Jan. 15, 2016, Jun. 20, 2016
[11] = Ex.1 HIV negative male with AIN 2/3, intra-anal 5% imiquimod 3x/wk + qHPV (HPV4) vaccine (IM, then 4 perianal)
[12] = Ex.1, imiquimod + qHPV vaccine, Dec. 11, 2014
[13] = Ex.1, imiquimod + qHPV vaccine, Dec. 29, 2014
[14] = Ex.1, imiquimod + qHPV vaccine, Feb. 10, 2015
[15] = Ex.1, imiquimod + qHPV vaccine, Feb. 25, 2015
[16] = Ex.1, imiquimod + qHPV vaccine, Jan. 27, 2015
[17] = Ex.1, imiquimod + qHPV vaccine, Pathology Report I
[18] = Ex.1, imiquimod + qHPV vaccine, Pathology Report II (Feb. 25, 2015)

O=c1[nH]cc(F)c(=O)[nH]1 [5-fluorouracil]
anal pap cytology (anal dysplasia [1]; [8]): negative for intraepithelial lesion and malignancy | anal dysplasia, overall outcome of immunotherapy protocol [2]: clearance of anal dysplasia (AIN 1, AIN 2 and AIN 3) | HRA biopsies histology [2, 9]: 3 o'clock—AIN 1; 5 o'clock—AIN 1; 6 o'clock—AIN 1; 9 o'clock—AIN 1; 10 o'clock—benign; 12 o'clock—benign | HRA biopsies histology [2, 10]: 3 o'clock—benign; 9 o'clock—benign anal mucosa; 10 o'clock—benign anal mucosa; 12 o'clock—benign anal mucosa | most notable side effects of the immunotherapy protocol [3]: anal and perianal irritation

CCN(CC)CC(=O)Nc1c(C)cccc1C [lidocaine]
burning at the site of HPV vaccination ([3]; local infusion of 1% lidocaine prior to perianal HPV-9 vaccinations): much less burning

CC(C)Cn1cnc2c(N)nc3ccccc3c21 [imiquimod, 3-(2-Methylpropyl)-3,5,8-triazatricyclo[7.4.0.0^2,6]trideca-1(9),2(6),4,7,10,12-hexaen-7-amine]
HR HPV DNA, overall outcome (high risk (HR) HPV DNA; [11]): loss of HR HPV DNA including HPV16 | anal pap high risk HPV DNA (high risk (HR) HPV DNA; [12]): negative | anal pap high risk HPV types (high risk (HR) HPV DNA; [13]): negative | anal pap high risk HPV DNA (high risk (HR) HPV DNA; [14]): negative | HPV DNA (high risk (HR) HPV DNA; [15]): negative | anal pap high risk HPV DNA (high risk (HR) HPV DNA; [16]): negative | anal Pap smear, overall outcome (anal dysplasia [4]; [11]): normalization of the anal Pap smear from ASCUS | anal pap smear cytology (anal dysplasia [4]; [13]): ASCUS | anal pap cytology (anal dysplasia [4]; Ex.1, imiquimod + qHPV vaccine, Feb. 10, 2015 (Pathology Report I concurrent pap)): normal; also recorded: negative for intraepithelial lesion and malignancy | anal pap smear cytology (anal dysplasia [4]; Ex.1, imiquimod + qHPV vaccine, Feb. 25, 2015 (Pathology Report II concurrent pap)): normal; also recorded: negative for intraepithelial lesion and malignancy | anal pap smear cytology (anal dysplasia [4]; [16]): normal | anal dysplasia, overall outcome [5, 11]: resolution of anal dysplasia | HRA biopsies histology [5, 12]: AIN 1 at 4 o'clock; AIN 2 at 7 o'clock and AIN 3 at 12 o'clock | HRA biopsies histology [5, 13]: AIN 2 at 7 o'clock and focal AIN 1 at 12 o'clock | HRA biopsies histology [5, 14]: normal histology at 4, AIN 1 at 10 and small focal AIN 2 at 12 o'clock | anoscopist's observation of anal canal epithelium [5, 15]: remodeling of the anal canal epithelium, replacing thickened dysplastic epithelium with thin, translucent epithelium, which is normal | biopsies at 2, 6, 10 and 12 o'clock [5, 16]: all normal without evidence of dysplasia | biopsy diagnosis, anal canal 4 o'clock (transition zone) [5, 17]: no evidence of dysplasia or malignancy | biopsy diagnosis, anal canal 10 o'clock (transition zone) [5, 17]: AIN 1 | biopsy diagnosis, anal canal 12 o'clock (transition zone) [5, 17]: AIN 2 | biopsy diagnosis, anal canal 5 o'clock [5, 18]: no evidence of dysplasia or malignancy | biopsy diagnosis, anal canal 7 o'clock [5, 18]: no evidence of dysplasia or malignancy | biopsy diagnosis, anal canal 10 o'clock [5, 18]: no evidence of dysplasia or malignancy | biopsy diagnosis, anal canal 12 o'clock [5, 18]: no evidence of dysplasia or malignancy | local adverse effect leading to interruptions of imiquimod cream [6]: increased perianal erythema | HPV typing ([7]; Ex.3 HIV positive male, recurrent HSIL after ablative treatments, intra-anal 5% imiquimod 3x/wk + HPV-9 vaccine IM (May 29, 2015), Aug. 7, 2015): positive for other high risk types | HPV assay ([7]; Ex.3, imiquimod + HPV-9 vaccine (IM, 1 perianal), Sep. 30, 2015): continued presence of other HPV high risk types | anal pap cytology (anal dysplasia [1]; [8]): negative for intraepithelial lesion and malignancy | anal pap cytology (anal dysplasia [1]; Oct. 28, 2015): atypical cells of undetermined significance (ASCUS) | anal pap cytology (anal dysplasia [1]; Sep. 30, 2015): LSIL | anal dysplasia, overall outcome of immunotherapy protocol [2]: clearance of anal dysplasia (AIN 1, AIN 2 and AIN 3) | HRA biopsies histology ([2]; imiquimod + HPV-9 vaccine IM, Aug. 7, 2015): 3 o'clock—AIN 2; 4 o'clock—AIN 1; 9 o'clock—AIN 1; 10 o'clock distal—AIN 1; 12 o'clock AIN 2 | HRA biopsies histology [2, 9]: 3 o'clock—AIN 1; 5 o'clock—AIN 1; 6 o'clock—AIN 1; 9 o'clock—AIN 1; 10 o'clock—benign; 12 o'clock—benign | HRA biopsies histology [2, 10]: 3 o'clock—benign; 9 o'clock—benign anal mucosa; 10 o'clock—benign anal mucosa; 12 o'clock—benign anal mucosa | HRA biopsies histology ([2]; imiquimod + HPV-9 vaccine, Dec. 9, 2015): 3 o'clock AIN—1; 6 o'clock—AIN 1; 9 o'clock—benign | HRA biopsies histology ([2]; imiquimod + HPV-9 vaccine, Oct. 28, 2015): 1 o'clock—AIN 1; 4 o'clock—benign; 9 o'clock—AIN 1; 12 o'clock—AIN 1 | HRA biopsies histology ([2]; imiquimod + HPV-9 vaccine, Sep. 30, 2015): 3 o'clock—AIN 1; 4 o'clock—AIN 1; 9 o'clock—AIN 1; 10 o'clock—AIN 1; 12 o'clock—benign | most notable side effects of the immunotherapy protocol [3]: anal and perianal irritation | patient complaints due to imiquimod cream treatments ([3]; intra-anal 5% imiquimod cream 3x/wk, Aug. 7, 2015): anal irritation and spotting of blood per anus | developed recurrent AIN (HPV DNA / AIN; after intra-anal 5% imiquimod cream, mean follow up approximately 30 months, often HPV types differing from start): 5 patient | HPV DNA viral loads (HPV DNA / AIN; intra-anal 5% imiquimod cream three times weekly for 16 weeks, 19 HIV positive men with AIN): decreased

sofosbuvir/ledipasvir
virologic response (hepatitis C, genotype 1): sustained virologic response
